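Briefly, cells in 96-well plates were exposed to five compound concentrations for 48 h, and endpoints were estimated by linear interpolation. TGI: concentration producing complete growth inhibition.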
What was measured:
Assay in all cases: NCI tumour cell line growth inhibition, 48 h
NCI-H23 lung = system: NCI-H23 lung
NCI-H522 lung = system: NCI-H522 lung
IGROV1 ovarian = system: IGROV1 ovarian
SW-620 colon = system: SW-620 colon
U251 CNS = system: U251 CNS
OVCAR-4 ovarian = system: OVCAR-4 ovarian
MDA-MB-435 = system: MDA-MB-435
UO-31 renal = system: UO-31 renal
SNB-19 CNS = system: SNB-19 CNS
HOP-92 NSCLC = system: HOP-92 NSCLC
A549 NSCLC = system: A549 NSCLC
PC-3 prostate = system: PC-3 prostate
K-562 leukemia = system: K-562 leukemia
MDA-MB-231 breast = system: MDA-MB-231 breast
SF-295 CNS = system: SF-295 CNS
HCC-2998 colon = system: HCC-2998 colon
NCI-H460 lung = system: NCI-H460 lung
HOP-62 NSCLC = system: HOP-62 NSCLC
SK-OV-3 ovarian = system: SK-OV-3 ovarian
DU-145 prostate = system: DU-145 prostate
SK-MEL-2 melanoma = system: SK-MEL-2 melanoma
COLO 205 colon = system: COLO 205 colon
MOLT-4 leukemia = system: MOLT-4 leukemia
A498 renal = system: A498 renal
SF-268 CNS = system: SF-268 CNS
HS 578T breast = system: HS 578T breast
OVCAR-5 ovarian = system: OVCAR-5 ovarian
BT-549 breast = system: BT-549 breast
MCF7 breast = system: MCF7 breast
RPMI-8226 leukemia = system: RPMI-8226 leukemia
SF-539 CNS = system: SF-539 CNS
OVCAR-3 ovarian = system: OVCAR-3 ovarian
SR leukemia = system: SR leukemia
CAKI-1 renal = system: CAKI-1 renal
NCI-H226 lung = system: NCI-H226 lung
M14 melanoma = system: M14 melanoma
MDA-N = system: MDA-N
HT29 colon = system: HT29 colon
HCT-15 colon = system: HCT-15 colon
UACC-62 melanoma = system: UACC-62 melanoma
T-47D breast = system: T-47D breast
TK-10 renal = system: TK-10 renal
SNB-75 CNS = system: SNB-75 CNS
SK-MEL-5 melanoma = system: SK-MEL-5 melanoma
UACC-257 melanoma = system: UACC-257 melanoma
786-0 renal = system: 786-0 renal
ACHN renal = system: ACHN renal
KM12 colon = system: KM12 colon
HCT-116 colon = system: HCT-116 colon
RXF 393 renal = system: RXF 393 renal
NCI/ADR-RES ovarian = system: NCI/ADR-RES ovarian
EKVX NSCLC = system: EKVX NSCLC
SN12C renal = system: SN12C renal
OVCAR-8 ovarian = system: OVCAR-8 ovarian
SK-MEL-28 melanoma = system: SK-MEL-28 melanoma
CCRF-CEM leukemia = system: CCRF-CEM leukemia
HL-60(TB) leukemia = system: HL-60(TB) leukemia
MALME-3M melanoma = system: MALME-3M melanoma
LOX IMVI melanoma = system: LOX IMVI melanoma

For COc1ccc(N=NC(=Nc2ccccc2)c2ccc(N(CCC#N)CCC#N)cc2)cc1, the TGI (NCI-H23 lung) was over 100 µM, the TGI (NCI-H522 lung) was 69.1 µM and the TGI (IGROV1 ovarian) was 89.3 µM. It also gave a TGI (SW-620 colon) of over 100 µM, a TGI (U251 CNS) of over 100 µM and a TGI (OVCAR-4 ovarian) of over 100 µM. The TGI (MDA-MB-435) was over 100 µM, the TGI (UO-31 renal) was over 100 µM and the TGI (SNB-19 CNS) was over 100 µM. The TGI (HOP-92 NSCLC) was over 100 µM, the TGI (A549 NSCLC) was over 100 µM and the TGI (PC-3 prostate) was over 100 µM. For the same molecule, the TGI (K-562 leukemia) was over 100 µM, the TGI (MDA-MB-231 breast) was 59.7 µM and the TGI (SF-295 CNS) was over 100 µM. For the same molecule, the TGI (HCC-2998 colon) was over 100 µM, the TGI (NCI-H460 lung) was over 100 µM and the TGI (HOP-62 NSCLC) was over 100 µM. The TGI (SK-OV-3 ovarian) was over 100 µM, the TGI (DU-145 prostate) was over 100 µM and the TGI (SK-MEL-2 melanoma) was over 100 µM. For the same molecule, the TGI (COLO 205 colon) was 28.6 µM, the TGI (MOLT-4 leukemia) was over 100 µM and the TGI (A498 renal) was over 100 µM. The TGI (SF-268 CNS) was over 100 µM, the TGI (HS 578T breast) was over 100 µM and the TGI (OVCAR-5 ovarian) was over 100 µM. For the same molecule, the TGI (BT-549 breast) was over 100 µM, the TGI (MCF7 breast) was 73 µM and the TGI (RPMI-8226 leukemia) was over 100 µM. For the same molecule, the TGI (SF-539 CNS) was over 100 µM, the TGI (OVCAR-3 ovarian) was 55.2 µM and the TGI (SR leukemia) was over 100 µM. It also gave a TGI (CAKI-1 renal) of over 100 µM, a TGI (NCI-H226 lung) of over 100 µM and a TGI (M14 melanoma) of over 100 µM. It also gave a TGI (MDA-N) of over 100 µM, a TGI (HT29 colon) of over 100 µM and a TGI (HCT-15 colon) of over 100 µM. For the same molecule, the TGI (UACC-62 melanoma) was over 100 µM, the TGI (T-47D breast) was over 100 µM and the TGI (TK-10 renal) was over 100 µM. For the same molecule, the TGI (SNB-75 CNS) was over 100 µM, the TGI (SK-MEL-5 melanoma) was over 100 µM and the TGI (UACC-257 melanoma) was 56.8 µM. For the same molecule, the TGI (786-0 renal) was over 100 µM, the TGI (ACHN renal) was over 100 µM and the TGI (KM12 colon) was over 100 µM. It also gave a TGI (HCT-116 colon) of over 100 µM, a TGI (RXF 393 renal) of over 100 µM and a TGI (NCI/ADR-RES ovarian) of over 100 µM. It also gave a TGI (EKVX NSCLC) of over 100 µM, a TGI (SN12C renal) of over 100 µM and a TGI (OVCAR-8 ovarian) of over 100 µM. It also gave a TGI (SK-MEL-28 melanoma) of over 100 µM.

In the case of CC(=O)Nc1nc(NC(C)=O)c2[nH]c(CO)nc2n1, the TGI (NCI-H23 lung) is reported as over 100 µM, the TGI (NCI-H522 lung) is reported as over 100 µM and the TGI (IGROV1 ovarian) is reported as over 100 µM. The TGI (SW-620 colon) was over 100 µM, the TGI (U251 CNS) was over 100 µM and the TGI (OVCAR-4 ovarian) was over 100 µM. It also gave a TGI (MDA-MB-435) of over 100 µM, a TGI (UO-31 renal) of over 100 µM and a TGI (SNB-19 CNS) of over 100 µM. The TGI (HOP-92 NSCLC) was over 100 µM, the TGI (A549 NSCLC) was over 100 µM and the TGI (PC-3 prostate) was over 100 µM. The TGI (K-562 leukemia) was over 100 µM, the TGI (MDA-MB-231 breast) was over 100 µM and the TGI (SF-295 CNS) was over 100 µM. For the same molecule, the TGI (HCC-2998 colon) was over 100 µM, the TGI (NCI-H460 lung) was over 100 µM and the TGI (HOP-62 NSCLC) was over 100 µM. For the same molecule, the TGI (SK-OV-3 ovarian) was over 100 µM, the TGI (DU-145 prostate) was over 100 µM and the TGI (SK-MEL-2 melanoma) was over 100 µM. The TGI (COLO 205 colon) was over 100 µM, the TGI (CCRF-CEM leukemia) was over 100 µM and the TGI (HL-60(TB) leukemia) was over 100 µM. It also gave a TGI (MOLT-4 leukemia) of over 100 µM, a TGI (A498 renal) of over 100 µM and a TGI (SF-268 CNS) of over 100 µM. It also gave a TGI (HS 578T breast) of over 100 µM, a TGI (OVCAR-5 ovarian) of over 100 µM and a TGI (BT-549 breast) of over 100 µM. For the same molecule, the TGI (MCF7 breast) was over 100 µM, the TGI (MALME-3M melanoma) was over 100 µM and the TGI (SF-539 CNS) was over 100 µM. It also gave a TGI (OVCAR-3 ovarian) of over 100 µM, a TGI (SR leukemia) of over 100 µM and a TGI (CAKI-1 renal) of over 100 µM. For the same molecule, the TGI (NCI-H226 lung) was over 100 µM, the TGI (M14 melanoma) was over 100 µM and the TGI (MDA-N) was over 100 µM. The TGI (HT29 colon) was over 100 µM, the TGI (HCT-15 colon) was over 100 µM and the TGI (UACC-62 melanoma) was over 100 µM. For the same molecule, the TGI (LOX IMVI melanoma) was over 100 µM, the TGI (T-47D breast) was over 100 µM and the TGI (TK-10 renal) was over 100 µM. The TGI (SNB-75 CNS) was over 100 µM, the TGI (SK-MEL-5 melanoma) was over 100 µM and the TGI (UACC-257 melanoma) was over 100 µM. For the same molecule, the TGI (786-0 renal) was over 100 µM, the TGI (ACHN renal) was over 100 µM and the TGI (KM12 colon) was over 100 µM. It also gave a TGI (HCT-116 colon) of over 100 µM, a TGI (RXF 393 renal) of over 100 µM and a TGI (NCI/ADR-RES ovarian) of over 100 µM. The TGI (EKVX NSCLC) was over 100 µM, the TGI (SN12C renal) was over 100 µM and the TGI (OVCAR-8 ovarian) was over 100 µM. For the same molecule, the TGI (SK-MEL-28 melanoma) was over 100 µM.

— PubChem BioAssay (NCI)
